According to ChEMBL document CHEMBL1201862, “PubChem BioAssay data set” (2004):
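Assay format: 96-well plates, 48-hour exposure. GI50 is the concentration that inhibits growth by half.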 Active and inactive are the calls of the source. Rule as the data show it: active = GI50 up to about 1.1 µM and inactive = higher.

What was measured:
Experiment in all cases: inhibition of tumour cell growth, NCI panel, 48 h
[1] = system: OVCAR-5
[2] = system: HL-60
[3] = system: MDA-MB-231
[4] = system: SK-MEL-2
[5] = system: SNB-19
[6] = system: KM12
[7] = system: SN12C
[8] = system: EKVX
[9] = system: CAKI-1
[10] = system: SNB-75
[11] = system: UACC-257
[12] = system: U-251
[13] = system: DU-145
[14] = system: TK-10
[15] = system: 786-0
[16] = system: SF-268
[17] = system: OVCAR-3
[18] = system: Hs-578T
[19] = system: Malme-3M

Compound | GI50 [1] | GI50 [2] | GI50 [3] | GI50 [4] | GI50 [5] | GI50 [6] | GI50 [7] | GI50 [8] | GI50 [9] | GI50 [10] | GI50 [11] | GI50 [12] | GI50 [13] | GI50 [14] | GI50 [15] | GI50 [16] | GI50 [17] | GI50 [18] | GI50 [19]
CC(C)c1cc(Cl)nc(Cl)n1 | > 100 µM (inactive) | > 100 µM (inactive) | > 100 µM (inactive) | > 100 µM (inactive) | > 100 µM (inactive) | > 100 µM (inactive) | > 100 µM (inactive) | > 100 µM (inactive) | > 100 µM (inactive) | > 100 µM (inactive) | > 100 µM (inactive) | > 100 µM (inactive) | > 100 µM (inactive) | > 100 µM (inactive) | > 100 µM (inactive) | > 100 µM (inactive) | > 100 µM (inactive) | > 100 µM (inactive) | –
ONCCCn1cnc2c(NC3CC3)ncnc21 | > 100 µM (inactive) | – | > 100 µM (inactive) | > 100 µM (inactive) | > 100 µM (inactive) | > 100 µM (inactive) | > 100 µM (inactive) | > 100 µM (inactive) | > 100 µM (inactive) | > 100 µM (inactive) | > 100 µM (inactive) | > 100 µM (inactive) | > 100 µM (inactive) | > 100 µM (inactive) | > 100 µM (inactive) | > 100 µM (inactive) | > 100 µM (inactive) | > 100 µM (inactive) | > 100 µM (inactive)
NCCCN(CCCCN(CCCN)Cc1ccccc1)Cc1ccccc1 | 17.5 µM (inactive) | > 100 µM (inactive) | > 100 µM (inactive) | – | 10.7 µM (inactive) | 30.4 µM (inactive) | 16 µM (inactive) | 21.2 µM (inactive) | 15.8 µM (inactive) | 4.57 µM (inactive) | 62.1 µM (inactive) | 42.3 µM (inactive) | 42.2 µM (inactive) | > 100 µM (inactive) | 23.1 µM (inactive) | 14.3 µM (inactive) | – | 13 µM (inactive) | 33.3 µM (inactive)
Cc1ccc2nc(-c3ccc(NC(=O)c4ccc(N)cc4)c(S(=O)(=O)O)c3)sc2c1 | > 100 µM (inactive) | > 100 µM (inactive) | > 100 µM (inactive) | – | > 100 µM (inactive) | > 100 µM (inactive) | > 100 µM (inactive) | > 100 µM (inactive) | > 100 µM (inactive) | > 100 µM (inactive) | > 100 µM (inactive) | > 100 µM (inactive) | > 100 µM (inactive) | > 100 µM (inactive) | > 100 µM (inactive) | > 100 µM (inactive) | > 100 µM (inactive) | > 100 µM (inactive) | > 100 µM (inactive)
c1ccc([P+](CCSCCSCC[P+](c2ccccc2)(c2ccccc2)c2ccccc2)(c2ccccc2)c2ccccc2)cc1 | > 100 µM (inactive) | > 100 µM (inactive) | > 100 µM (inactive) | > 100 µM (inactive) | > 100 µM (inactive) | > 100 µM (inactive) | > 100 µM (inactive) | > 100 µM (inactive) | – | > 100 µM (inactive) | > 100 µM (inactive) | 24.7 µM (inactive) | > 100 µM (inactive) | > 100 µM (inactive) | > 100 µM (inactive) | > 100 µM (inactive) | > 100 µM (inactive) | > 100 µM (inactive) | –
CCCCc1c2c(c(C)c3c1C(=O)OC3)Oc1ccccc1O2 | > 27.5 µM (inactive) | 0.316 µM (active) | 2.57 µM (inactive) | 0.541 µM (active) | 3.95 µM (inactive) | 0.815 µM (active) | 1.85 µM (inactive) | – | 5.74 µM (inactive) | 0.562 µM (active) | 0.428 µM (active) | 0.57 µM (active) | 2.51 µM (inactive) | 2.29 µM (inactive) | 1.5 µM (inactive) | 1.64 µM (inactive) | 0.274 µM (active) | 0.628 µM (active) | 0.596 µM (active)
O=C(/C=C/c1ccc(O)c(O)c1)Oc1ccccc1 | 28.7 µM (inactive) | 1.61 µM (inactive) | 23.1 µM (inactive) | 15.7 µM (inactive) | 20.4 µM (inactive) | 9.29 µM (inactive) | 16 µM (inactive) | 18.6 µM (inactive) | 5.85 µM (inactive) | 13.1 µM (inactive) | 22.8 µM (inactive) | 12.6 µM (inactive) | 13.2 µM (inactive) | 28.1 µM (inactive) | 10.6 µM (inactive) | 7.59 µM (inactive) | 6.98 µM (inactive) | 14.2 µM (inactive) | –
O=c1c(O)c(-c2cc(O)c(O)c(O)c2)oc2cc(O)cc(O)c12 [MYRICETIN] | 84.1 µM (inactive) | 56.6 µM (inactive) | 18.1 µM (inactive) | > 100 µM (inactive) | – | 17.7 µM (inactive) | – | – | 23.6 µM (inactive) | 64.4 µM (inactive) | 29.2 µM (inactive) | 18.7 µM (inactive) | > 100 µM (inactive) | > 100 µM (inactive) | 20.1 µM (inactive) | 44.2 µM (inactive) | 30.6 µM (inactive) | 40.9 µM (inactive) | > 100 µM (inactive)
